Assay results taken from ChEMBL document CHEMBL1201862, “PubChem BioAssay data set” (2004).
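Where inhibition never reached the appropriate level, the endpoint shown equals the highest concentration tested. Otherwise, values were interpolated linearly from a five-concentration, 48-hour dose response in 96-well plates. Abbreviation: GI50, concentration required for 50% inhibition of growth.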 The source made the active and inactive calls. Rule as the data show it: active = GI50 up to about 1.1 µM and inactive = higher.

Assays:
Assay in all cases: NCI tumour cell line growth inhibition, 48 h
MOLT-4 = test system: MOLT-4
Malme-3M = test system: Malme-3M
SK-MEL-28 = test system: SK-MEL-28
UACC-62 = test system: UACC-62
NCI-H522 = test system: NCI-H522
SF-539 = test system: SF-539
NCI-H23 = test system: NCI-H23
SK-OV-3 = test system: SK-OV-3
SK-MEL-2 = test system: SK-MEL-2
TK-10 = test system: TK-10
SN12C = test system: SN12C
KM12 = test system: KM12
MDA-N = test system: MDA-N
A549 = test system: A549
NCI-H226 = test system: NCI-H226
CAKI-1 = test system: CAKI-1
HCT-116 = test system: HCT-116
DU-145 = test system: DU-145
NCI/ADR-RES = test system: NCI/ADR-RES
RPMI-8226 = test system: RPMI-8226
ACHN = test system: ACHN
COLO 205 = test system: COLO 205
K562 = test system: K562
NCI-H460 = test system: NCI-H460
UO-31 = test system: UO-31
OVCAR-8 = test system: OVCAR-8
SF-268 = test system: SF-268
T47D = test system: T47D
HL-60 = test system: HL-60
BT-549 = test system: BT-549
U-251 = test system: U-251
SR = test system: SR
SNB-75 = test system: SNB-75
HOP-92 = test system: HOP-92
A498 = test system: A498
RXF 393 = test system: RXF 393
SNB-19 = test system: SNB-19
OVCAR-4 = test system: OVCAR-4
HCT-15 = test system: HCT-15
EKVX = test system: EKVX
786-0 = test system: 786-0
PC-3 = test system: PC-3
MDA-MB-435 = test system: MDA-MB-435
CCRF-CEM = test system: CCRF-CEM
Hs-578T = test system: Hs-578T
MCF7 = test system: MCF7
UACC-257 = test system: UACC-257
HT-29 = test system: HT-29
MDA-MB-231 = test system: MDA-MB-231
LOX IMVI = test system: LOX IMVI
SF-295 = test system: SF-295
SW-620 = test system: SW-620
IGROV-1 = test system: IGROV-1
SK-MEL-5 = test system: SK-MEL-5
M14 = test system: M14
OVCAR-5 = test system: OVCAR-5
HOP-62 = test system: HOP-62
OVCAR-3 = test system: OVCAR-3

## CCOC(=O)c1cc2c([nH]1)C(=O)CC1=C2CCN1Cc1ccccc1
MOLT-4
  GI50: 4.06 µM (inactive)
Malme-3M
  GI50: 5.65 µM (inactive)
SK-MEL-28
  GI50: 17.2 µM (inactive)
UACC-62
  GI50: 14.8 µM (inactive)
NCI-H522
  GI50: 17.9 µM (inactive)
SF-539
  GI50: 22.1 µM (inactive)
NCI-H23
  GI50: 16.1 µM (inactive)
SK-OV-3
  GI50: 19.4 µM (inactive)
SK-MEL-2
  GI50: 20.5 µM (inactive)
TK-10
  GI50: 13.9 µM (inactive)
SN12C
  GI50: 18.2 µM (inactive)
KM12
  GI50: 17.6 µM (inactive)
MDA-N
  GI50: 13.5 µM (inactive)
A549
  GI50: 21.4 µM (inactive)
NCI-H226
  GI50: 0.585 µM (active)
CAKI-1
  GI50: 3.46 µM (inactive)
HCT-116
  GI50: 13 µM (inactive)
DU-145
  GI50: 15.2 µM (inactive)
NCI/ADR-RES
  GI50: 20.7 µM (inactive)
RPMI-8226
  GI50: 3.81 µM (inactive)
ACHN
  GI50: 12.9 µM (inactive)
COLO 205
  GI50: 16.8 µM (inactive)
K562
  GI50: 3.8 µM (inactive)
NCI-H460
  GI50: 18.4 µM (inactive)
UO-31
  GI50: 15.3 µM (inactive)
OVCAR-8
  GI50: 23.1 µM (inactive)
SF-268
  GI50: 21.3 µM (inactive)
T47D
  GI50: 2.45 µM (inactive)
HL-60
  GI50: 7.4 µM (inactive)
BT-549
  GI50: 18.1 µM (inactive)
U-251
  GI50: 12.5 µM (inactive)
SR
  GI50: 5.02 µM (inactive)
SNB-75
  GI50: 23.3 µM (inactive)
HOP-92
  GI50: 14.3 µM (inactive)
A498
  GI50: 15.3 µM (inactive)
RXF 393
  GI50: 13.9 µM (inactive)
SNB-19
  GI50: 17.5 µM (inactive)
OVCAR-4
  GI50: 13.6 µM (inactive)
HCT-15
  GI50: 8.53 µM
EKVX
  GI50: 19.8 µM (inactive)
786-0
  GI50: 17.2 µM (inactive)
PC-3
  GI50: 20.5 µM (inactive)
MDA-MB-435
  GI50: 13.2 µM (inactive)
CCRF-CEM
  GI50: 4.43 µM (inactive)
Hs-578T
  GI50: 20.4 µM (inactive)
MCF7
  GI50: 13.3 µM (inactive)
UACC-257
  GI50: 17.4 µM (inactive)
HT-29
  GI50: 16 µM (inactive)
MDA-MB-231
  GI50: 13.2 µM (inactive)
LOX IMVI
  GI50: 13.3 µM (inactive)
SF-295
  GI50: 18.5 µM (inactive)
SW-620
  GI50: 5.36 µM (inactive)
IGROV-1
  GI50: 17.9 µM (inactive)

## O=[N+]([O-])c1ccc2c3ccccc3[s+]([O-])c2c1 (centres undefined)
MOLT-4
  GI50: > 100 µM (inactive)
Malme-3M
  GI50: 30.5 µM (inactive)
SK-MEL-28
  GI50: > 100 µM (inactive)
UACC-62
  GI50: > 100 µM (inactive)
NCI-H522
  GI50: > 100 µM (inactive)
SF-539
  GI50: > 100 µM (inactive)
NCI-H23
  GI50: > 100 µM (inactive)
SK-OV-3
  GI50: > 100 µM (inactive)
SK-MEL-2
  GI50: > 100 µM (inactive)
TK-10
  GI50: > 100 µM (inactive)
SN12C
  GI50: > 100 µM (inactive)
KM12
  GI50: > 100 µM (inactive)
MDA-N
  GI50: > 100 µM (inactive)
A549
  GI50: > 100 µM (inactive)
NCI-H226
  GI50: > 100 µM (inactive)
CAKI-1
  GI50: > 100 µM (inactive)
HCT-116
  GI50: > 100 µM (inactive)
DU-145
  GI50: > 100 µM (inactive)
NCI/ADR-RES
  GI50: > 100 µM (inactive)
RPMI-8226
  GI50: > 100 µM (inactive)
ACHN
  GI50: > 100 µM (inactive)
COLO 205
  GI50: 63.7 µM (inactive)
K562
  GI50: > 100 µM (inactive)
SK-MEL-5
  GI50: > 100 µM (inactive)
NCI-H460
  GI50: > 100 µM (inactive)
OVCAR-8
  GI50: > 100 µM (inactive)
M14
  GI50: > 100 µM (inactive)
SF-268
  GI50: > 100 µM (inactive)
T47D
  GI50: > 100 µM (inactive)
HL-60
  GI50: 88.5 µM (inactive)
BT-549
  GI50: > 100 µM (inactive)
U-251
  GI50: > 100 µM (inactive)
SR
  GI50: > 100 µM (inactive)
SNB-75
  GI50: > 100 µM (inactive)
HOP-92
  GI50: > 100 µM (inactive)
A498
  GI50: > 100 µM (inactive)
SNB-19
  GI50: > 100 µM (inactive)
OVCAR-4
  GI50: > 100 µM (inactive)
HCT-15
  GI50: > 100 µM
EKVX
  GI50: 35.2 µM (inactive)
OVCAR-5
  GI50: > 100 µM (inactive)
786-0
  GI50: > 100 µM (inactive)
PC-3
  GI50: > 100 µM (inactive)
MDA-MB-435
  GI50: > 100 µM (inactive)
CCRF-CEM
  GI50: > 100 µM (inactive)
Hs-578T
  GI50: > 100 µM (inactive)
MCF7
  GI50: 74 µM (inactive)
UACC-257
  GI50: > 100 µM (inactive)
HT-29
  GI50: > 100 µM (inactive)
HOP-62
  GI50: > 100 µM (inactive)
MDA-MB-231
  GI50: > 100 µM (inactive)
OVCAR-3
  GI50: 33 µM (inactive)
LOX IMVI
  GI50: > 100 µM (inactive)
SF-295
  GI50: > 100 µM (inactive)
SW-620
  GI50: 72.4 µM (inactive)
IGROV-1
  GI50: > 100 µM (inactive)
